# Experimental data published in patent US7393865B2, “Sleep inducing compounds and methods relating thereto” (Neurocrine Biosciences, Inc., priority 2004, dated 2008).
# Biological target: T1, human H1 receptor (Homo sapiens, UniProt P35367)
# T1 construct: expressed in transfected cells; host or cells: CHO cells (crude membranes)
# Experiment: Human histamine H1 receptor binding assay
# Details: competition with 1.5 nM [pyridinyl-5-3H] Pyrilamine, crude membranes of CHO cells transfected with human H1 receptor; Ki from IC50 by Cheng-Prusoff
# Description: Compounds of the present invention may be evaluated for binding to the histamine H1 receptor by a standard binding assay. […] Pyrilamine (˜30 Ci/mmol, Amersham TRK608) in the presence of varying concentrations of competing ligand. Non-specific binding is determined in the presence of excess (1 μM) doxepin. Bound and free ligand are separated by rapid vacuum filtration using a Packard 96-well cell harvester onto UniFilter GF/C filter plates (PerkinElmer) that has been pretreated with 1% polyethyleneimine. The filter plates are then washed with 600 μl phosphate buffered saline containing 0.01% (v/v) Triton-X100. Bound radioligand is determined by scintillation counting using a TopCount-NXT (Packard). Binding data is analyzed by nonlinear, least-squares curve fitting algorithms using GraphPad Prism (GraphPad Software, Inc. San Diego, Calif.) or ActivityBase (IDBS, Guildford, Surrey, UK).
# T1 sequence (P35367 whole entry): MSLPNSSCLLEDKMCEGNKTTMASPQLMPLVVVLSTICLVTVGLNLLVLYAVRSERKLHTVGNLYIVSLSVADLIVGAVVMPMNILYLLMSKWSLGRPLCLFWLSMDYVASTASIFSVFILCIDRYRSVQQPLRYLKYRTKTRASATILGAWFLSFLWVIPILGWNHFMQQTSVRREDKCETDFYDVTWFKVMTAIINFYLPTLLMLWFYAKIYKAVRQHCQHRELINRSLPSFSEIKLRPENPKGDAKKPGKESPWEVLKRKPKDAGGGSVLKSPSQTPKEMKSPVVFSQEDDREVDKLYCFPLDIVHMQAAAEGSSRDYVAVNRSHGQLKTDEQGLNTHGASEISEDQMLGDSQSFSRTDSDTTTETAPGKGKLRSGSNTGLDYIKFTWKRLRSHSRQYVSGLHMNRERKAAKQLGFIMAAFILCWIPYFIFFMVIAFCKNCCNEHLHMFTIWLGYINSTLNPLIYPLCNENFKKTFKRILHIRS
row,Ki [µM],SMILES
1,≤ 1,"C[C@H](c1cccnc1F)c1c(CCN(C)C)sc2ccccc12 [Compound 15-8, Dimethyl-(2-{3-[(R)-1-(2-fluoro-pyridin-3-yl)-ethyl]-benzo[b]thiophen-2-yl}-ethyl)-amine]"
2,≤ 1,"C[C@@H](c1cccnc1F)c1c(CCN(C)C)sc2ccccc12 [Compound 15-9, Dimethyl-(2-{3-[(S)-1-(2-fluoro-pyridin-3-yl)-ethyl]-benzo[b]thiophen-2-yl}-ethyl)-amine]"
3,≤ 1,"CC(c1cscn1)c1c(CCN(C)C)sc2ccccc12 (centres unmarked) [Compound 16-2, Dimethyl-{2-[3-(1-thiazol-4-yl-ethyl)-benzo[b]thiophen-2-yl]-ethyl}-amine]"
4,≤ 1,"C[C@@H](c1cscn1)c1c(CCN(C)C)sc2ccccc12 [Compound 16-3, Dimethyl-{2-[3-((R)-1-thiazol-4-yl-ethyl)-benzo[b]thiophen-2-yl]-ethyl}-amine]"
5,≤ 1,"CC(c1cncs1)c1c(CCN(C)C)sc2ccccc12 (centres unmarked) [Compound 17-2, Dimethyl-{2-[3-(1-thiazol-5-yl-ethyl)-benzo[b]thiophen-2-yl]-ethyl}-amine]"
6,≤ 1,"C[C@@H](c1cncs1)c1c(CCN(C)C)sc2ccccc12 [Compound 17-3, Dimethyl-{2-[3-((R)-1-thiazol-5-yl-ethyl)-benzo[b]thiophen-2-yl]-ethyl}-amine]"
7,≤ 1,"C[C@H](c1cncs1)c1c(CCN(C)C)sc2ccccc12 [Compound 17-4, Dimethyl-{2-[3-((S)-1-thiazol-5-yl-ethyl)-benzo[b]thiophen-2-yl]-ethyl}-amine]"
8,≤ 1,"CC(c1ncccc1F)c1c(CCN(C)C)sc2ccccc12 (centres unmarked) [Compound 18-3, (2-{3-[1-(3-Fluoro-pyridin-2-yl)-ethyl]-benzo[b]thiophen-2-yl}-ethyl)-dimethyl-amine]"
9,≤ 1,"C[C@@H](c1ncccc1F)c1c(CCN(C)C)sc2ccccc12 [Compound 18-4, (2-{3-[(R)-1-(3-Fluoro-pyridin-2-yl)-ethyl]-benzo[b]thiophen-2-yl}-ethyl)-dimethyl-amine]"
10,≤ 1,"C[C@H](c1ncccc1F)c1c(CCN(C)C)sc2ccccc12 [Compound 18-5, (2-{3-[(S)-1-(3-Fluoro-pyridin-2-yl)-ethyl]-benzo[b]thiophen-2-yl}-ethyl)-dimethyl-amine]"
11,≤ 1,"CC(c1cscn1)c1c(CCN2CCCC2)sc2ccccc12 (centres unmarked) [Compound 19-4, 4-{1-[2-(2-Pyrrolidin-1-yl-ethyl)-benzo[b]thiophen-3-yl]-ethyl}-thiazole]"
12,≤ 1,"C[C@@H](c1cscn1)c1c(CCN2CCCC2)sc2ccccc12 [Compound 19-5, 4-{(R)-1-[2-(2-Pyrrolidin-1-yl-ethyl)-benzo[b]thiophen-3-yl]-ethyl}-thiazole]"
13,≤ 1,"C[C@H](c1cscn1)c1c(CCN2CCCC2)sc2ccccc12 [Compound 19-6, 4-{(S)-1-[2-(2-Pyrrolidin-1-yl-ethyl)-benzo[b]thiophen-3-yl]-ethyl}-thiazole]"
14,≤ 1,"CC(c1ccccn1)c1c(CCN2CCCC2)sc2ccccc12 (centres unmarked) [Compound 20-1, 2-{1-[2-(2-Pyrrolidin-1-yl-ethyl)-benzo[b]thiophen-3-yl]-ethyl}-pyridine]"
15,≤ 1,"C[C@H](c1ccccn1)c1c(CCN2CCCC2)sc2ccccc12 [Compound 20-2, 2-{(S)-1-[2-(2-Pyrrolidin-1-yl-ethyl)-benzo[b]thiophen-3-yl]-ethyl}-pyridine]"
16,≤ 1,"C[C@@H](c1ccccn1)c1c(CCN2CCCC2)sc2ccccc12 [Compound 20-3, 2-{(R)-1-[2-(2-Pyrrolidin-1-yl-ethyl)-benzo[b]thiophen-3-yl]-ethyl}-pyridine]"
17,≤ 1,"CC(c1ccccn1)c1c(CCN2CCC(O)C2)sc2ccccc12 (centres unmarked) [Compound 20-6, 1-{2-[3-(1-Pyridin-2-yl-ethyl)-benzo[b]thiophen-2-yl]-ethyl}-pyrrolidin-3-ol]"
18,≤ 1,"CC(c1ccccn1)c1c(CCN2CCC2)sc2ccccc12 (centres unmarked) [Compound 20-7, 2-{1-[2-(2-Azetidin-1-yl-ethyl)-benzo[b]thiophen-3-yl]-ethyl}-pyridine]"
19,≤ 1,"C[C@@H](c1ccccn1)c1c(CCN2CCC2)sc2ccccc12 [Compound 20-8, 2-{(R)-1-[2-(2-Azetidin-1-yl-ethyl)-benzo[b]thiophen-3-yl]-ethyl}-pyridine]"
20,≤ 1,"C[C@H](c1ccccn1)c1c(CCN2CCC2)sc2ccccc12 [Compound 20-9, 2-{(S)-1-[2-(2-Azetidin-1-yl-ethyl)-benzo[b]thiophen-3-yl]-ethyl}-pyridine]"
21,≤ 1,"CNCCc1sc2ccccc2c1[C@@H](C)c1ccccn1 [Compound 21-1, Methyl-{2-[3-((R)-1-pyridin-2-yl-ethyl)-benzo[b]thiophen-2-yl]-ethyl}-amine]"
22,≤ 1,"CN(C)CCc1sc2ccccc2c1Cc1cccnc1F [Compound 24-2, {2-[3-(2-Fluoro-pyridin-3-ylmethyl)-benzo[b]thiophen-2-yl]-ethyl}-dimethyl-amine]"
23,≤ 1,"CC(c1cccnc1Cl)c1c(CCN(C)C)sc2ccccc12 (centres unmarked) [Compound 25-4, (2-{3-[1-(2-Chloro-pyridin-3-yl)-ethyl]-benzo[b]thiophen-2-yl}-ethyl)-dimethyl-amine]"
